Legend:
[1] = system: SK-BR-3 cancer cell line (human breast cancer cell line); test: MTT cytotoxicity assay, SK-BR-3 cancer cell line; type: cell-based; settings: for EC50: cancer cell line SKBR3
Text: (§1) The cytotoxic activity of CBDA methyl esters, CBCA CBGA and THCA was studied by the in vitro MTT colorimetric process (Mosmann, T. et al. J. Immunol. Methods. 1983; 65: 55-63). This method, which is widely used to measure cellular metabolic activity as an indicator of cell viability, division and cytotoxicity, is based on the reduction of a yellow salt of tetrazole ((3-(4,5-dimethylthiazol-2-yl)-2). 5-diphenyltetrazolium bromide or MTT) in violet formazan crystals from metabolically active cells.
(§2) Briefly for this cytotoxicity test, the SK-BR-3 cancer cell line (human breast cancer cell line), the MCF-7 cancer cell line (human breast cancer cell line), and the A2058 cancer cell line […]) and the cancer line SKMEL28 (melanoma line). All cell lines were tested at 20% v/v O2, in the presence of 10% FBS after 48 h or 72 h of incubation.

[2] = system: A2058 cancer cell line (melanoma); test: MTT cytotoxicity assay, A2058 cancer cell line; type: cell-based
Text: as §1, §2

SKMEL28 (melanoma line) = test: MTT cytotoxicity assay, SKMEL28 cancer line; type: cell-based
Text: as §1, §2

[3] = system: MCF-7 cancer cell line (human breast cancer cell line); test: MTT cytotoxicity assay, MCF-7 cancer cell line; type: cell-based; settings: MCF7 cell line
Text: as §1, §2

normal MCF10A cells = test: Cytotoxic activity in normal MCF10A cells compared to SK-BR-3; type: cell-based; settings: FIG. 3
Text: FIG. 3. Comparison of the cytotoxic activity of CBDA methyl ester in SK-BR-3 cancer cells compared to the cytotoxic activity in normal MCF10A cells.
as §1

cyclooxygenase-2 = settings: MDA-MB-231; cited from earlier work
[4] = system: breast cancer cells MDA-MB-231; settings: cited from earlier work
[5] = MTT, incubation time not stated (48 h or 72 h)

CCCCCc1cc2c(c(O)c1C(=O)OC)C1C=C(C)CCC1C(C)(C)O2 (stereo not shown) [THCA-Me, THCA methyl ester]
EC50 [1, 5]: 36 µM

CCCCCc1cc(O)c(C/C=C(\C)CCC=C(C)C)c(O)c1C(=O)OC [CBGA-Me, CBGA methyl ester]
relative cytotoxic activity among the esters ([1]; SKBR3, 48 h and 72 h (FIGS. 1 and 2)): greatest activity | activity compared with the corresponding decarboxylated product ([1]; SKBR3, 72 h for CBGA methyl ester vs CBG): almost twice as active as CBG | EC50 [1, 5]: 20.2 µM | EC50 [2]: 17 µM | EC50 (SKMEL28 (melanoma line)): 17 µM | EC50 [3]: 18 µM

C=C(C)[C@@H]1CCC(C)=C[C@H]1c1c(O)cc(CCCCC)c(C(=O)OC)c1O [CBDA-Me, CBDA methyl ester]
EC50 [1, 5]: 30.6 µM | effect on SK-BR-3 cancer cells compared with normal MCF10A cells (normal MCF10A cells): much stronger effect on SK-BR-3 cancer cells than normal MCF10A cells

CCCCCc1cc2c(c(O)c1C(=O)OC)C=CC(C)(CCC=C(C)C)O2 (stereo not shown) [CBCA-Me, CBCA methyl ester]
EC50 [1, 5]: 35 µM

C=C(C)[C@@H]1CCC(C)=C[C@H]1c1c(O)cc(CCCCC)c(C(=O)O)c1O [CBDA, Cannabidiolic acid]
expression of cyclooxygenase-2 (cyclooxygenase-2): enhance the expression of cyclooxygenase-2 | cell migration [4]: inhibit cell migration

CCCCCc1cc(O)c(C/C=C(\C)CCC=C(C)C)c(O)c1 [CBG, cannabigerol, reference compound]
EC50 ([1]; Homo sapiens, SK-BR-3, 72 h): 38.8 µM

From patent US20240166591A1, “Pharmaceutical Products Based on Cannabinoid Acid Esters” (priority 2021, published 2024)
